Test results as given in patent US20150152083A1, “Compounds and Compositions for Modulating EGFR Activity” (IRM LLC, A Delaware Limited Liability Company, priority 2012, published 2015).

Experiments:
[1] = molecular target: T1, EGFR (WT) (Homo sapiens, UniProt P00533); test: EGFR target modulation in engineered NIH3T3 cell lines (phospho-EGFR AlphaLISA); type: cell-based; details: NIH3T3 cells expressing human EGFR WT; 3 hours compound; induced with 50 ng/ml EGF
T1 construct: host or cells: NIH3T3
T1 sequence (P00533 25-1210): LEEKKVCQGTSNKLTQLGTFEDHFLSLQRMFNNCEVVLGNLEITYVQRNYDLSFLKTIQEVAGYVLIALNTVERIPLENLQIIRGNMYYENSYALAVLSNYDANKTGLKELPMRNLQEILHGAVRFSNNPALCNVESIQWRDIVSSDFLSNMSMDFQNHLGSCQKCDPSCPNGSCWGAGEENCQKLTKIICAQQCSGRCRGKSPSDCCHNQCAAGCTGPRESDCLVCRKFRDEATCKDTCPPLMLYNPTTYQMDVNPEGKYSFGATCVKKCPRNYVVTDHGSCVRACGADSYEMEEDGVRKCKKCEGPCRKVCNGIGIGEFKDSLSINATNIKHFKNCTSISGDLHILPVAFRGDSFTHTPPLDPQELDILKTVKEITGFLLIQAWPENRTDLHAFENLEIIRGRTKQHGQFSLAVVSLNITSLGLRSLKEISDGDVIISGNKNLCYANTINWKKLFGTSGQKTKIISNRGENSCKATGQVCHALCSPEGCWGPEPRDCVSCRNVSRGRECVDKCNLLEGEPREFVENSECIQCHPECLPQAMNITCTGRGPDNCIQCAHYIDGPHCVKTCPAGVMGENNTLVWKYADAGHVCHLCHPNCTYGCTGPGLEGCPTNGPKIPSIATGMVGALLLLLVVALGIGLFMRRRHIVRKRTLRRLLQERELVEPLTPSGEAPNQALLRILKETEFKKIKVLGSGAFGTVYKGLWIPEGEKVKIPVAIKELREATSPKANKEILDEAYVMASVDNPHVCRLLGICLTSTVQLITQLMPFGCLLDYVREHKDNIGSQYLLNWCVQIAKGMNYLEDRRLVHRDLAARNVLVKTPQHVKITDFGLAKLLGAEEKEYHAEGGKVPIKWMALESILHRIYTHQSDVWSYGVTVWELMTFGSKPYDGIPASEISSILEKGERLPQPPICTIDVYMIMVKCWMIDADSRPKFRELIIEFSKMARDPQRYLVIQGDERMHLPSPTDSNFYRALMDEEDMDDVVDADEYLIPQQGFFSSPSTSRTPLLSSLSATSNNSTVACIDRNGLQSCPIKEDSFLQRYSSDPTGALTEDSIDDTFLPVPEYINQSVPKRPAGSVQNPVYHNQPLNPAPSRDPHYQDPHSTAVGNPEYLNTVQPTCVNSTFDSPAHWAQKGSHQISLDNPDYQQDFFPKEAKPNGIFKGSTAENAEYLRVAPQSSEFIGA
Experimental: (§1) EGFR Target Modulation in Engineered NIH3T3 Cell Lines
(§2) NIH3T3 cell lines expressing human EGFR (WT, L858R, and L858RT790M) (obtained from Matthew Meyerson's Lab at DFCI) were maintained in 10% FBS/DMEM supplemented with 100 μg/ml Penicillin/Streptomycin (Hyclone #SV30010) and 2 μg/ml Puromycin. The cells were harvested with 0.05% Trypsin/EDTA (Hyclone #SH30236.01), re-suspended in 5% FBS/DMEM Pen/Strep without Puromycin and plated at 9,000 cells per well in 50 μl of media in a 384-well black plate with clear bottoms (Greiner #789068G). The cells were allowed to incubate overnight in a 37° C., 5% CO2 humidified tissue culture incubator. A 12-point test compound curve was prepared by serial diluting a 10 μM stock 1:3 in DMSO in a 384-well compound plate (Greiner #789201L). The serial diluted compounds were transferred to the plate containing cells by using a 50 nl Pin Head device (Perkin Elmer) and the cells were placed back in the incubator for 3 hours. Only the EGFR WT-expressing cells were induced with 50 ng/ml EGF (Preprotech #AF-100-15) for 5 minutes before lysis. The media was removed and cells were lysed in 25 μl of Lysis buffer containing protease and phosphatase inhibitors (1% Triton X-100, 20 mM Tris, pH 7.5, 1 mM EDTA, 1 mM EGTA, 150 mM NaCl, 1× complete cocktail inhibitor (Roche #11 697 498 001), 1× Phosphatase Inhibitor Cocktail Set II and Set III (Sigma #P5726 and #P0044)). The plates were shaken at 4° C. for 5 minutes with foil top at maximum speed. An aliquot of 5 μl from each well was transferred to ProxiPlate™ 384-well Plus plates (PE #6008289). The plates were sealed with a foil top and frozen at −80° C. and thawed when needed.
(§3) The frozen aliquots were thawed and briefly centrifuged. All antibodies and beads were diluted in 1× AlphaLISA HiBlock Buffer (PE #AL004C). Biotinylated anti-phospho-EGFR (Y1068) (Cell Signaling #4031) was incubated with the lysate for 1 hour at room temperature at 1 nM final concentration. Goat anti-total EGFR (R&D Systems #AF231) was added and allowed to equilibrate for 1 hour at room temperature at 1 nM final concentration. Then, 10 μl of mixed beads (AlphaScreen Streptavidin Donor Beads (PE #6760002S) and AlphaLISA anti-goat IgG Acceptor Beads (PE #AL107C)) was equilibrated for 1.5 hours before reading on EnVision plate reader using the built-in settings for AlphaScreen.
(§4) Cells untreated (L858R and L858RT790M) or EGF-induced (WT) were set to 100% maximum response. For a negative control, 10 μM HKI-272 was used to normalize data to 0% of maximum response. With these parameters, the IC50's for each compound in each cell line was calculated using non-linear curve fitting analysis.

[2] = molecular target: T2, EGFR (L858R) (Homo sapiens, UniProt P00533, L858R); test: as above; type: cell-based; details: NIH3T3 cells expressing human EGFR L858R; 3 hours compound
T2 construct: host or cells: NIH3T3
T2 sequence (P00533 25-1210 L858R): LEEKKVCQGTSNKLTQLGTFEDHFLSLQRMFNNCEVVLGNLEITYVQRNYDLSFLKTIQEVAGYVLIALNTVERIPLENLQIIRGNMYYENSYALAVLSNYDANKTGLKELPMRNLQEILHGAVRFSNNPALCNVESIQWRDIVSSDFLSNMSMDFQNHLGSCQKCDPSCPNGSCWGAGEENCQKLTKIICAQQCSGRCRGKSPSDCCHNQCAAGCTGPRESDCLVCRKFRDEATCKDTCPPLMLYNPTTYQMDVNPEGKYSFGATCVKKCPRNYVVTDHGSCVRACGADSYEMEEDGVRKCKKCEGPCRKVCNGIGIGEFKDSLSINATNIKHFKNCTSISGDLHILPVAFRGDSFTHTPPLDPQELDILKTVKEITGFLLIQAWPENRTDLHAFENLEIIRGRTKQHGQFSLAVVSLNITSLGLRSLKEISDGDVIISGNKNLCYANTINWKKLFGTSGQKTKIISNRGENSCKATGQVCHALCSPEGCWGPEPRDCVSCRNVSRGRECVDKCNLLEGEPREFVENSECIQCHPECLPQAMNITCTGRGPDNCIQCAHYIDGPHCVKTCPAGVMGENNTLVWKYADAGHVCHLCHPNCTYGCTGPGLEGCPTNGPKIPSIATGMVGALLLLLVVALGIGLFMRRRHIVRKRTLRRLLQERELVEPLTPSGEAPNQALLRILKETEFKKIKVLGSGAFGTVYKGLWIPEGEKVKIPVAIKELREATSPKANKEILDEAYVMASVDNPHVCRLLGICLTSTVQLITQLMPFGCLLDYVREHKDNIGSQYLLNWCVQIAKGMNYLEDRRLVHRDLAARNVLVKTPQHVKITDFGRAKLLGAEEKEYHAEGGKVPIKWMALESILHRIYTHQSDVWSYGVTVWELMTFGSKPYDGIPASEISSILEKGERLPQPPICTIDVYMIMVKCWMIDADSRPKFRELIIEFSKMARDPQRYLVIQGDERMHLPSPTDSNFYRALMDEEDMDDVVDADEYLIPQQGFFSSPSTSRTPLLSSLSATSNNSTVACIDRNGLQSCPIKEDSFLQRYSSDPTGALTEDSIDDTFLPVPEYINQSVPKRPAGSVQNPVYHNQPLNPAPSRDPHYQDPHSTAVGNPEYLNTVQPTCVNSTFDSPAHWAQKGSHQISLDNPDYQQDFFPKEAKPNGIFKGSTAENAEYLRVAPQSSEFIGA
Experimental: as §1, §2, §3, §4

[3] = molecular target: T3, EGFR(L858R/T790M) (Homo sapiens, UniProt P00533, L858R/T790M); test: EGFR biochemical assay (HTRF), IC50 determination; design: purchased from Carna (GST-a.a. 669-1210); purchased Carna; details: 10 μM ATP
Experimental: All EGFR biochemical assays were carried out by HTRF method. The EGFR(L858RT790M) enzyme were purchased from Carna (GST-a.a. 669-1210). The substrate peptide Biotin-TK-peptide was purchased from Cis-Bio. The reaction mixtures contained 1 μM peptide substrate, 10 μM ATP, and 0.036 nM EGFR(L858RT790M) in the reaction buffer (50 mM HEPES pH 7.1, 10 mM MgCl2, 0.01% BSA, 1 mM TCEP and 0.1 mM Na3VO4) at a final volume of 10 μL. All reactions were carried out at room temperature in white ProxiPlate™ 384-well Plus plates (PerkinElmer) and were quenched with 5 μL of 0.2 M EDTA at 60 min Five μL of the detection reagents (2.5 ng PT66K and 0.05 μg SAXL per well) were added, the plates were incubated at room temperature for 1 h and then read in EnVision reader. […] For no-preincubation condition, the compounds were added to the assay solution containing ATP and peptide, and the reaction was initiated by addition of enzyme. For pre-incubation conditions, the compounds were added to the assay solution containing enzyme and peptide, and pre-incubated at room temperature for desired period of time, then the reaction was initiated by addition of ATP.
Target sequence in this assay (P00533 669-1210 T790M/L858R): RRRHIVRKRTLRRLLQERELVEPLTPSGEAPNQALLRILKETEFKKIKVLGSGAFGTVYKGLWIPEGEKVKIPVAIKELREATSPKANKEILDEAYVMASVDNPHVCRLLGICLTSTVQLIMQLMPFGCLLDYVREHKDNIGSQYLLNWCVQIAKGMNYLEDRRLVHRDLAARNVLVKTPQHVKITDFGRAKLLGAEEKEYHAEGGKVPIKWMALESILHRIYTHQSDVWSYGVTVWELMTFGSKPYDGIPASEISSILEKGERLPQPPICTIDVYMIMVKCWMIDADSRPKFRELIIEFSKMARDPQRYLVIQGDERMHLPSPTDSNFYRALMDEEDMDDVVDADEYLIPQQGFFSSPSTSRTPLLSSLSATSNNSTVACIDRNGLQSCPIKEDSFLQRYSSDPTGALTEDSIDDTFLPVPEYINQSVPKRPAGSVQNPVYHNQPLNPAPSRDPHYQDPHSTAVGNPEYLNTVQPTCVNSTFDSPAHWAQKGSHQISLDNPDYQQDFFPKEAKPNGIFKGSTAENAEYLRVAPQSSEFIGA

[4] = molecular target: T3, EGFR(L858R/T790M); test: EGFR target modulation in engineered NIH3T3 cell lines (phospho-EGFR AlphaLISA); type: cell-based; design: host or cells: NIH3T3; details: NIH3T3 cells expressing human EGFR L858R/T790M; 3 hours compound
Experimental: as §1, §2, §3, §4
Target sequence in this assay (P00533 25-1210 T790M/L858R): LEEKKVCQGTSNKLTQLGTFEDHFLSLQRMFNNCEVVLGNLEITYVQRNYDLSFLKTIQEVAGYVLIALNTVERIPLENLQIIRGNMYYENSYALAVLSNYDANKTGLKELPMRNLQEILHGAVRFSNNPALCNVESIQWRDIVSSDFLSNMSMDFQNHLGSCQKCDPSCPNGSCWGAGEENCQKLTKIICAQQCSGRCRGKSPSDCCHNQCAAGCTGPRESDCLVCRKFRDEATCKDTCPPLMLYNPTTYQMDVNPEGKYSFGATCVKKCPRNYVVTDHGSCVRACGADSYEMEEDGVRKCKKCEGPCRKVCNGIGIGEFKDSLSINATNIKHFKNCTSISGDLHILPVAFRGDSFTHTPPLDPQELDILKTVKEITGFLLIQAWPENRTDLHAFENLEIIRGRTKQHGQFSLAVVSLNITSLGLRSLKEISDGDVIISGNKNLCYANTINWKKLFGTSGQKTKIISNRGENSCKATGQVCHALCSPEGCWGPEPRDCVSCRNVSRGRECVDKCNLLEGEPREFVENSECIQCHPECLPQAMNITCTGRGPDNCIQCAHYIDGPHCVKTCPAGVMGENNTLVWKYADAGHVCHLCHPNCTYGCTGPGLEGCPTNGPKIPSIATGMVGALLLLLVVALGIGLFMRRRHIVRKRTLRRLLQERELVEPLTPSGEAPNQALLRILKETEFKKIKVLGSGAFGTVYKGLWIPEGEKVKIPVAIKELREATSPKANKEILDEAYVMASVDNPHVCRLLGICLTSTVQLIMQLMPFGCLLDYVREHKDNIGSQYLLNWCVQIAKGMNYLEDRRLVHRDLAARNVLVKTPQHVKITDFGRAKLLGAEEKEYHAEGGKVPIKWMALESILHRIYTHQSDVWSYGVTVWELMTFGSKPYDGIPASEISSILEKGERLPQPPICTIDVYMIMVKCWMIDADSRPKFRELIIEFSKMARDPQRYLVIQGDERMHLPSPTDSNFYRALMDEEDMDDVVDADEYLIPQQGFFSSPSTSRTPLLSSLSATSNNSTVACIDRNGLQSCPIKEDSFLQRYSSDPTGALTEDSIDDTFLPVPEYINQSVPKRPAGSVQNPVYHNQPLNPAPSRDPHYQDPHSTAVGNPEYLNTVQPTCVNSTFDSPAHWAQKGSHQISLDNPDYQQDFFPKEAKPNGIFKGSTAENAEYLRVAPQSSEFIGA

[5] = EGFR (L858R/T790M) IC50 (μM) 90 min pre-incubation, 90 min pre-incubation
[6] = no pre-incubation, read-out: EGFR (L858R/T790M) IC50 (μM) No pre-incubation

| SMILES | IC50 [1] | IC50 [2] | IC50 [3, 5] | IC50 [3, 6] | IC50 [4] |
| --- | --- | --- | --- | --- | --- |
| C=CC(=O)Nc1cccc(-n2c(NC(=O)c3cccc(-c4ccccc4)c3)nc3cc(C)ccc32)c1 [Example 2-7, N-{5-methyl-1-[3-(prop-2-enamido)phenyl]-1H-1,3-benzodiazol-2-yl}-3-phenylbenzamide] | > 10 µM | 0.023 µM | < 0.001 µM | 0.006 µM | 0.007 µM |
| C=CC(=O)Nc1cccc(-n2c(NC(=O)c3ccc4ccccc4c3)nc3cc(C)ccc32)c1 [Example 2-8, N-{5-methyl-1-[3-(prop-2-enamido)phenyl]-1H-1,3-benzodiazol-2-yl}naphthalene-2-carboxamide] | > 10 µM | 0.64 µM | 0.013 µM | 0.18 µM | 0.38 µM |
| C=CC(=O)Nc1cccc(-n2c(NC(=O)c3cccc(C(F)(F)F)c3)nc3cc(C)ccc32)c1 [Example 2-9, N-{5-methyl-1-[3-(prop-2-enamido)phenyl]-1H-1,3-benzodiazol-2-yl}-3-(trifluoromethyl)benzamide] | > 10 µM | 0.55 µM | 0.006 µM | 0.049 µM | 0.052 µM |
| C=CC(=O)N(C)c1cccc(-n2c(NC(=O)c3cccc(C(F)(F)F)c3)nc3cc(C)ccc32)c1 [Example 2-10, N-{5-methyl-1-[3-(N-methylprop-2-enamido)phenyl]-1H-1,3-benzodiazol-2-yl}-3-(trifluoromethyl)benzamide] | > 8 µM | 0.66 µM | 0.003 µM | 0.085 µM | 0.11 µM |
| C=CC(=O)Nc1cccc(-n2c(NC(=O)c3cccc(C(F)(F)F)c3)nc3cccc(C)c32)c1 [Example 2-13, N-{7-methyl-1-[3-(prop-2-enamido)phenyl]-1H-1,3-benzodiazol-2-yl}-3-(trifluoromethyl)benzamide] | > 10 µM | 0.31 µM | 0.004 µM | 0.057 µM | 0.079 µM |
| C=CC(=O)Nc1cccc(-n2c(NC(=O)c3cccc(C(F)(F)F)c3)nc3cc(CO)ccc32)c1 [Example 3, N-(1-(3-acrylamidophenyl)-5-(hydroxymethyl)-1H-benzo[d]imidazol-2-yl)-3-(trifluoromethyl)benzamide] | > 10 µM | 0.45 µM | 0.003 µM | 0.028 µM | 0.036 µM |
| C=CC(=O)Nc1cccc(-n2c(NC(=O)c3cccc(C(F)(F)F)c3)nc3cc(COCC)ccc32)c1 [Example 4, N-(1-(3-acrylamidophenyl)-5-(ethoxymethyl)-1H-benzo[d]imidazol-2-yl)-3-(trifluoromethyl)benzamide] | > 10 µM | 1.1 µM | 0.005 µM | 0.071 µM | 0.1 µM |
| C=CC(=O)Nc1cccc(-n2c(NC(=O)c3cccc(C(F)(F)F)c3)nc3cc(COC)ccc32)c1 [Example 5-1, N-[5-(methoxymethyl)-1-[3-(prop-2-enamido)phenyl]-1H-1,3-benzodiazol-2-yl]-3-(trifluoromethyl)benzamide] | > 10 µM | 0.86 µM | < 0.001 µM | 0.022 µM | 0.02 µM |
| C=CC(=O)Nc1cccc(-n2c(NC(=O)c3cccc(C(F)(F)F)c3)nc3cc(CN4CCCC4)ccc32)c1 [Example 5-2, N-[1-[3-(prop-2-enamido)phenyl]-5-(pyrrolidin-1-ylmethyl)-1H-1,3-benzodiazol-2-yl]-3-(trifluoromethyl)benzamide] | > 10 µM | 0.18 µM | 0.007 µM | 0.039 µM | 0.013 µM |
